From US5085992A, “Microbial transformation process for antihypertensive products” (Merck & Co., Inc., priority 1991, dated 1992)

Biological target: T1, Angiotensin II (A II) receptor (Oryctolagus cuniculus, UniProt P34976)
T1 construct: tissue Pel-Freeze Biologicals; host or cells: rabbit aorta, membrane preparation (frozen aortae)
T1 sequence (P34976 1-359): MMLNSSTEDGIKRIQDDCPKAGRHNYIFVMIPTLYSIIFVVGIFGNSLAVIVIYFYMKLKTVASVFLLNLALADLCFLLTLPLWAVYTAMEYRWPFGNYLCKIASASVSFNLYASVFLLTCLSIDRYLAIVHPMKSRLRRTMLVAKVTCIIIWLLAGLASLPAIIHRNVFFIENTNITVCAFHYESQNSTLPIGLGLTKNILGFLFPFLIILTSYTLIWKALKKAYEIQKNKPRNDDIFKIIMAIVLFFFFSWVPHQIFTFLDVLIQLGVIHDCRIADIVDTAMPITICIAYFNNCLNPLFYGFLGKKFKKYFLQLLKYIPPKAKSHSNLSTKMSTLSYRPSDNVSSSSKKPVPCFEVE
Assay: Receptor binding assay using rabbit aortae membrane preparation ("IC50" assay; displacement of 125I-Sar1 Ile8-angiotensin II)
Settings: membrane preparation derived from rabbit aortae; 37° C., 90 minutes; read-out: inhibitory concentration (IC50) giving 50% displacement of the total specifically bound 125I-Sar1 Ile8-angiotensin II
Description: This assay is also referred to herein as the "IC 50 "assay.
RECEPTOR BINDING ASSAY USING RABBIT AORTAE MEMBRANE PREPARATION
Three frozen rabbit aortae (obtained from Pel-Freeze Biologicals) were suspended in 5 mM Tris-0.25 M Sucrose, pH 7.4 buffer (50 ml) homogenized, and then centifuged. The mixture was filtered through a cheesecloth and the supernatant was centrifuged for 30 minutes at 20,000 rpm at 4° C. The pellet thus obtained was resuspended in 30 ml of 50 mM Tris-5 mM MgCl2 buffer containing 0.2% Bovine Serum Albumin and 0.2 mg/ml Bacitration and the suspension was used for 100 assay tubes. Samples tested for screening were done in duplicate. To the membrane preparation (0.25 ml) there was added ^125 I-Sar^1 Ile^8 -angiotensin II [obtained from New England Nuclear] (10 ul; 20,000 cpm) with or without the test sample and the mixture was incubated at 37° C. for 90 minutes. The mixture was then diluted with ice-cold 50 mM Tris-0.9% NaCl, pH 7.4 (4 ml) and filtered through a glass fiber filter (GF/B Whatman 2.4" diameter). The filter was soaked in scintillation cocktail (10 ml) and counted for radioactivity using Packard 2660 Tricarb liquid scintillation counter. […]

- IC50: < 50 µM
Structure (SMILES): CCc1nc2c(C)cc(C)nc2n1Cc1ccc(-c2ccccc2-c2nnn([C@@H]3O[C@H](C(=O)O)[C@@H](O)[C@H](O)[C@H]3O)n2)cc1 [compound (I)]
